# Measured values from patent publication US9145415B2, “Nitrogen-containing heterocyclic compound or salt thereof” (FUJIFILM Corporation, priority 2012, dated 2015).
# Read-outs that look alike come from different tables or passages of the source.
# Legend:
# [1] = tested on: Molm-13 cells; assay: Leukemia cell proliferation inhibition test (ATPlite), Molm-13; assay type: cell-based; settings: Homo sapiens, read-out: MOLM13 cell proliferation inhibition effect
# In short: (§1)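 Molm-13 or MV4-11 cells at 10,000 cells/well in RPMI with 10% FBS and pen/strep were exposed to serially diluted compound for 72 h at 37 °C, 5% CO2. Total cellular ATP was read by luciferase luminescence. GI50 was taken relative to 0.1% DMSO control, from duplicates by sigmoid non-linear regression.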
# [2] = tested on: MV4-11 cells; assay: Leukemia cell proliferation inhibition test (ATPlite), MV4-11; assay type: cell-based; settings: Homo sapiens, read-out: MV4-11 cell proliferation inhibition effect
# In short: as §1
# [3] = target: T1, human FLT3 protein (FLT3 (WT)) (Homo sapiens, UniProt P36888); assay: FLT3 inhibition test (FLT3 enzyme inhibition, time-resolved fluorescence of substrate peptide phosphorylation); assay type: biochemical; settings: read-out: FLT3 (WT) enzyme inhibition activity
# T1 construct: human FLT3 protein (intracellular region, 564 to 993 aa); GST; purchased Carna Biosciences; host or cells: baculovirus expression system
# T1 sequence (P36888 564-993): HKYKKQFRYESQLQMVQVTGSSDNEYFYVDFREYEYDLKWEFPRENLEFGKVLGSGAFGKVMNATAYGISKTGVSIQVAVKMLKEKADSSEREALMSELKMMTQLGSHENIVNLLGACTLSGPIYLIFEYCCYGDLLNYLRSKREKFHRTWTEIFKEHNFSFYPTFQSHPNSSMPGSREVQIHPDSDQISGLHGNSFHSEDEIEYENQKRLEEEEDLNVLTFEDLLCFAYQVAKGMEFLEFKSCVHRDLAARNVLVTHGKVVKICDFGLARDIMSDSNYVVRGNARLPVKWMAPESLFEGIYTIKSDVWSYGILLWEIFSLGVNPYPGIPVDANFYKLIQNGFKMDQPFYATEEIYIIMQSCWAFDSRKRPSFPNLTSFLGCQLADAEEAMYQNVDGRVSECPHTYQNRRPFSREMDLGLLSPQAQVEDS
# In short: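 Substrate peptide phosphorylation detected by time-resolved fluorescence after a 30 min kinase reaction at 25° C with 50 μM ATP (final). Beforehand, compound and FLT3 (WT, 1.2 μg) stood 15 min at 25° C in HEPES buffer pH 7.5 containing MgCl2, NaCl, BSA and DTT.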
# [4] = MOLM-13, 72 h, Molm-13, 72 hours culture, ATPlite, GI50 per method
# [5] = MV4-11, 72 h, MV4-11, 72 hours culture, ATPlite, GI50 per method
# [6] = GST-fused human FLT3 (564 to 993 aa), ATP 50 μM
"IC50 [1, 4]","IC50 [2, 5]","IC50 [3, 6]","IC50 ([1]; MOLM-13, MOLM13 cell)","IC50 ([2]; MV4-11, MV4-11 cell)",IC50 ([3]; FLT3 (WT)),SMILES
10 to 100 nM,< 10 nM,< 10 nM,,,,CCCNc1nc(Nc2ccc(C)nc2)ncc1C#CCCCNC(=O)[C@H](C)N(C)C(=O)/C=C/CN(C)C [Compound 21-17]
,,,< 10 nM,< 10 nM,< 10 nM,CCCNc1nc(Nc2ccc3c(c2)c(F)nn3C)ncc1C#CCCCNC(=O)[C@@H]1CCCN1C(=O)/C=C/CN(C)C [Compound 22-61]
< 10 nM,< 10 nM,< 10 nM,,,,"CCCNc1nc(Nc2cccc(F)c2)ncc1-c1cc(CCNC(=O)[C@H](C)N(C)C(=O)/C=C/CN(C)C)no1 [Compound 17-1, (S,E)-4-(dimethylamino)-N-(1-((2-(5-(2-((3-fluorophenyl)amino)-4-(propylamino)pyrimidin-5-yl)isoxazol-3-yl)ethyl)amino)-1-oxopropan-2-yl)-N-methyl-2-butenamide]"
,,,< 10 nM,< 10 nM,< 10 nM,"CNc1nc(Nc2ccc(OC)c(F)c2)ncc1C#C[C@@H]1CCC[C@H](NC(=O)[C@H](C)N(C)C(=O)/C=C/CN(C)C)C1 [Compound 21-32, (E)-4-(Dimethylamino)-N—((S)-1-(((1S,3R)-3-((2-((3-fluoro-4-methoxyphenyl)amino)-4-(methylamino)pyrimidin-5-yl)ethynyl)cyclohexyl)amino)-1-oxopropan-2-yl)-N-methyl-2-butenamide]"
< 10 nM,< 10 nM,< 10 nM,,,,C[C@@H](C(=O)N[C@H]1CCC[C@@H](C#Cc2cnc(Nc3ccnc(F)c3)nc2NC2CC2)C1)N(C)C(=O)/C=C/CN(C)C [Compound 14-2]
,,,10 to 100 nM,10 to 100 nM,< 10 nM,CCCNc1nc(Nc2cncc(Cl)c2)ncc1C#CCCCNC(=O)[C@H](C)N(C)C(=O)/C=C/CN(C)C [Compound 22-9]
,,,10 to 100 nM,10 to 100 nM,< 10 nM,CCCNc1nc(Nc2ccc3sc(C)nc3c2)ncc1C#CCCCNC(=O)[C@H](C)N(C)C(=O)/C=C/CN(C)C [Compound 22-7]
,,,< 10 nM,< 10 nM,< 10 nM,CCCNc1nc(Nc2ccc3[nH]ncc3c2)ncc1C#CCCCNC(=O)[C@@H]1CCCN1C(=O)/C=C/CN(C)C [Compound 22-62]
< 10 nM,< 10 nM,< 10 nM,,,,"CCCNc1nc(Nc2ccnc(OC)c2)ncc1C#C[C@H]1C[C@@H](NC(=O)[C@H](C)N(C)C(=O)/C=C/CN(C)C)C1 [Compound 14-6, (E)-4-(Dimethylamino)-N—((S)-1-(((1S,3R)-3-((2-((2-methoxypyridin-4-yl)amino)-4-(propylamino)pyrimidin-5-yl)ethynyl)cyclobutyl)amino)-1-oxopropan-2-yl)-N-methyl-2-butenamide]"
,,,< 10 nM,< 10 nM,< 10 nM,COCCNc1nc(Nc2cccc(C#N)c2)ncc1C#C[C@@H]1CCC[C@H](NC(=O)[C@H](C)N(C)C(=O)/C=C/CN(C)C)C1 [Compound 22-38]
< 10 nM,< 10 nM,< 10 nM,,,,CCNc1nc(Nc2ccc(C#N)cc2)ncc1C#C[C@@H]1CCC[C@H](NC(=O)[C@H](C)N(C)C(=O)/C=C/CN(C)C)C1 [Compound 21-28]
,,,< 10 nM,< 10 nM,< 10 nM,CCCNc1nc(Nc2ccc3[nH]nc(OC)c3c2)ncc1C#CCCCNC(=O)[C@@H]1CCCN1C(=O)/C=C/CN(C)C [Compound 22-67]
,,,10 to 100 nM,100 to 1000 nM,10 to 100 nM,CCCNc1nc(Nc2cc(F)c3c(c2)c(N(C)C)nn3C)ncc1C#CCCCNC(=O)[C@H](C)N(C)C(=O)/C=C/CN(C)C [Compound 22-13]
< 10 nM,< 10 nM,< 10 nM,,,,CC(C)Oc1nc(Nc2ccc(C#N)cc2)ncc1C#C[C@@H]1CCC[C@H](NC(=O)[C@H](C)N(C)C(=O)/C=C/CN(C)C)C1 [Compound 21-22]
,,,< 10 nM,< 10 nM,< 10 nM,CCCNc1nc(Nc2ccc3[nH]nc(OC)c3c2)ncc1C#CCCCNC(=O)[C@H](C)N(C)C(=O)/C=C/CN(C)C [Compound 22-64]
< 10 nM,< 10 nM,< 10 nM,,,,C[C@@H](C(=O)NCCCC#Cc1cnc(Nc2ccc(C#N)cc2)nc1NCC1CC1)N(C)C(=O)/C=C/CN(C)C [Compound 21-12]
< 10 nM,< 10 nM,< 10 nM,,,,CCCNc1nc(Nc2ccc(C#N)c(C)c2)ncc1C#CCCCNC(=O)[C@H](C)N(C)C(=O)/C=C/CN(C)C [Compound 21-3]

# Continued, compound first:
SMILES,"IC50 [1, 4]","IC50 [2, 5]","IC50 [3, 6]","IC50 ([1]; MOLM-13, MOLM13 cell)","IC50 ([2]; MV4-11, MV4-11 cell)",IC50 ([3]; FLT3 (WT))
CCCNc1nc(Nc2cccc(F)c2)ncc1C#CCCCNC(=O)[C@H]1CCCN1C(=O)/C=C/CN(C)C [Compound 7-94],10 to 100 nM,10 to 100 nM,10 to 100 nM,,,
CCCNc1nc(Nc2ccc(C#N)cc2)ncc1C#CCCCNC(=O)[C@@H]1CC(F)(F)CN1C(=O)/C=C/CN(C)C [Compound 7-54],< 10 nM,< 10 nM,10 to 100 nM,,,
CCNc1nc(Nc2ccc3[nH]ncc3c2)ncc1C#CCCCNC(=O)[C@H](C)N(C)C(=O)/C=C/CN(C)C [Compound 10-61],< 10 nM,< 10 nM,< 10 nM,,,
"CNc1nc(Nc2ccc3[nH]ncc3c2)ncc1C#CCCCNC(=O)[C@@H]1CCCN1C(=O)/C=C/CN(C)C [Compound 10-66, (S,E)-N-(5-(2-((1H-Indazol-5-yl)amino)-4-(methylamino)pyrimidin-5-yl)-4-pentyn-1-yl)-1-(4-(dimethylamino)-2-butenoyl)pyrrolidine-2-carboxamide]",< 10 nM,< 10 nM,< 10 nM,,,
CNc1nc(Nc2ccc3[nH]ncc3c2)ncc1C#CCCCNC(=O)[C@H](C)N(C)C(=O)/C=C/CN(C)C [Compound 10-60],< 10 nM,< 10 nM,< 10 nM,,,
C=CC(=O)N1CCC(NC(=O)c2cnc(NCCc3ccncc3)nc2NCCC)CC1 [Compound 6-18],10 to 100 nM,10 to 100 nM,< 10 nM,,,
CCCNc1nc(Nc2ccc3cnccc3c2)ncc1C(=O)NCCCNC(=O)[C@H](C)N(C)C(=O)/C=C/CN(C)C [Compound 6-8],< 10 nM,< 10 nM,< 10 nM,,,
COCCNc1nc(Nc2ccc(C#N)cc2)ncc1C#CCCCNC(=O)[C@H](C)N(C)C(=O)/C=C/CN(C)C [Compound 10-50],< 10 nM,< 10 nM,< 10 nM,,,
CCCNc1nc(Nc2ccc(C(N)=O)cc2)ncc1CCCCCNC(=O)CNC(=O)/C=C/CN(C)C [Compound 7-29],100 to 1000 nM,10 to 100 nM,< 10 nM,,,
COc1ccc(Nc2nc(Nc3ccc(F)nc3)ncc2C#CCCCNC(=O)[C@H](C)N(C)C(=O)/C=C/CN(C)C)cc1 [Compound 7-22],< 10 nM,< 10 nM,< 10 nM,,,
C[C@@H](C(=O)NCCCC#Cc1cnc(Nc2cccc(F)c2)nc1NCC1CCOCC1)N(C)C(=O)/C=C/CN(C)C [Compound 10-7],< 10 nM,< 10 nM,< 10 nM,,,
COCCCNc1nc(Nc2ccnc(F)c2)ncc1C#CCCCNC(=O)[C@H](C)N(C)C(=O)/C=C/CN(C)C [Compound 9-16],< 10 nM,< 10 nM,< 10 nM,,,
C=CC(=O)NCC(=O)Nc1ccccc1CNC(=O)c1cnc(NCCc2ccncc2)nc1NCCC [Compound 2-29],100 to 1000 nM,100 to 1000 nM,10 to 100 nM,,,
CN(C)C/C=C/C(=O)N(C)CC(=O)NCCCC#Cc1cnc(Nc2ccc(F)cc2)nc1N1CCOCC1 [Compound 10-17],10 to 100 nM,< 10 nM,< 10 nM,,,
CNc1ncc(C#C[C@H]2C[C@@H](NC(=O)[C@H](C)N(C)C(=O)/C=C/CN(C)C)C2)c(Nc2ccc(OC)cc2)n1 [Compound 13-21],< 10 nM,< 10 nM,< 10 nM,,,
"CCCNc1nc(NC)ncc1C#CCCCNC(=O)[C@H](C)N(C)C(=O)/C=C/CN(C)C [Compound 11-1, (S,E)-4-(dimethylamino)-N-methyl-N-(1-((5-(2-(methylamino)-4-(propylamino)pyrimidin-5-yl)-4-pentyn-1-yl)amino)-1-oxopropan-2-yl)-2-butenamide]",10 to 100 nM,10 to 100 nM,10 to 100 nM,,,
C/C=C/C(=O)N(C)[C@@H](C)C(=O)Nc1cccc(NC(=O)c2cnc(Nc3ccc(C(N)=O)cc3)nc2NCCC)c1 [Compound 3-9],10 to 100 nM,10 to 100 nM,< 10 nM,,,
